IC50 data for 21 compounds are collected here from patent publication US10849881B2, “Octahydro-cyclobuta[1,2-c;3,4-c′]dipyrrol-2-yl” (Hoffmann-La Roche Inc., priority 2013, dated 2020).

SMILES strings stand for the structures.

The target of the assay is ATX (human His-tagged) (Homo sapiens (Human), UniProt Q13822). Briefly: Human ATX enzyme inhibition assay (fluorescence quenching, MR121 substrate). Format: biochemical. The following applies: 30 nM ATX, 1 μM MR121 substrate, 30° C., pH 8.0. The protocol:
Human ATX Enzyme Inhibition Assay
ATX inhibition was measured by a fluorescence quenching assay using a specifically labeled substrate analogue (MR121 substrate). To obtain this MR121 substrate, BOC and TBS protected 6-amino-hexanoic acid (R)-3-({2-[3-(2-{2-[2-(2-amino-ethoxy)-ethoxy]-ethoxy}-ethoxy)-propionylamino]-ethoxy}-hydroxy-phosphoryloxy)-2-hydroxy-propyl ester (Ferguson et al., Org Lett 2006, 8 (10), 2023) was labeled with MR121 fluorophore (CAS 185308-24-1, 1-(3-carboxypropyl)-11-ethyl-1,2,3,4,8,9,10,11-octahydro-dipyrido[3,2-b:2′,3′-i]phenoxazin-13-ium) on the free amine of the ethanolamine side and then, after deprotection, subsequently with tryptophan on the side of the aminohexanoic acid.
Assay working solutions were made as follows:
Assay buffer (50 mM Tris-HCl, 140 mM NaCl, 5 mM KCl, 1 mM CaCl2, 1 mM MgCl2, 0.01% Triton-X-100, pH 8.0;
ATX solution: ATX (human His-tagged) stock solution (1.08 mg/mL in 20 mM bicine, pH 8.5, 0.15 M NaCl, 10% glycerol, 0.3% CHAPS, 0.02% NaN3), diluted to 1.4-2.5× final concentration in assay buffer;
MR121 substrate solution: MR121 substrate stock solution (800 μM MR121 substrate in DMSO), diluted to 2-5× final concentration in assay buffer.
Test compounds (10 mM stock in DMSO, 8 μL) were obtained in 384 well sample plates (Corning Costar #3655) and diluted with 8 μL DMSO. Row-wise serial dilutions were made by transferring 8 μL cpd solution to the next row up to row O. The compound and control solutions were mixed five times and 2 μL were transferred to 384 well assay plates (Corning Costar #3702). Then, 15 μL of 41.7 nM ATX solution was added (30 nM final concentration), mixed five times and then incubated for 15 minutes at 30° C. 10 μL of MR121 substrate solution was added (1 μM final concentration), mixed 30 times and then incubated for 15 minutes at 30′C.
Regarding `COc1cc2ccccc2cc1C(=O)N1C[C@@H]2[C@H]3CN(C(=O)c4ccc5[nH]nnc5c4)C[C@H]3[C@@H]2C1` [Example 1.021, [(3aS,3bS,6aR,6bR)-5-(1H-benzotriazole-5-carbonyl)-octahydro-cyclobuta[1,2-c;3,4-c′]dipyrrol-2-yl]-(3-methoxy-naphthalen-2-yl)-methanone], the 50% inhibitory concentration (IC50) – broadly, the concentration that gives 50% inhibition – came to 265 nM. With `COc1c(C(=O)N2C[C@@H]3[C@H]4CN(C(=O)c5ccc6[nH]nnc6c5)C[C@H]4[C@@H]3C2)ccc2ccccc12` [Example 1.022, [(3aS,3bS,6aR,6bR)-5-(1H-benzotriazole-5-carbonyl)-octahydro-cyclobuta[1,2-c;3,4-c′]dipyrrol-2-yl]-(1-methoxy-naphthalen-2-yl)-methanone] the figure was 155 nM; with `O=C(c1ccc2[nH]nnc2c1)N1C[C@@H]2[C@H](C1)[C@H]1CN(C(=O)c3cc4ccccc4[nH]3)C[C@@H]21` [Example 1.023, [(3aR,3bS,6aR,6bS)-5-(1H-benzotriazole-5-carbonyl)-octahydro-cyclobuta[1,2-c;3,4-c′]dipyrrol-2-yl]-(1H-indol-2-yl)-methanone], 1470 nM. The figure for `Cn1c(C(=O)N2C[C@@H]3[C@H]4CN(C(=O)c5ccc6[nH]nnc6c5)C[C@H]4[C@@H]3C2)cc2ccccc21` [Example 1.024, [(3aR,3bS,6aR,6bS)-5-(1H-benzotriazole-5-carbonyl)-octahydro-cyclobuta[1,2-c;3,4-c′]dipyrrol-2-yl]-(1-methyl-1H-indol-2-yl)-methanone] is 377 nM; for `O=C(c1cc(OCC2CC2)c2ccccc2c1)N1C[C@@H]2[C@H](C1)[C@H]1CN(C(=O)c3ccc4[nH]nnc4c3)C[C@@H]21` [Example 1.025, [(3aS,3bS,6aR,6bR)-5-(1H-benzotriazole-5-carbonyl)-octahydro-cyclobuta[1,2-c;3,4-c′]dipyrrol-2-yl]-(4-cyclopropylmethoxy-naphthalen-2-yl)-methanone] it is 8.5 nM; for `COc1cc(C(=O)N2C[C@@H]3[C@H](C2)[C@H]2CN(C(=O)c4ccc5[nH]nnc5c4)C[C@@H]32)cc2ccccc12` [Example 1.026, [(3aS,3bS,6aR,6bR)-5-(1H-benzotriazole-5-carbonyl)-octahydro-cyclobuta[1,2-c;3,4-c′]dipyrrol-2-yl]-(4-methoxy-naphthalen-2-yl)-methanone] it is 11.5 nM. With `N#Cc1ccc2[nH]c(C(=O)N3C[C@@H]4[C@H]5CN(C(=O)c6ccc7[nH]nnc7c6)C[C@H]5[C@@H]4C3)cc2c1` [Example 1.027, 2-[(3aR,3bS,6aR,6bS)-5-(1H-benzotriazole-5-carbonyl)-octahydro-cyclobuta[1,2-c;3,4-c′]dipyrrole-2-carbonyl]-1H-indole-5-carbonitrile] the figure was 828 nM; with `COc1cccc(C(=O)N2C[C@@H]3[C@H](C2)[C@H]2CN(C(=O)c4ccc5[nH]nnc5c4)C[C@@H]32)c1` [Example 1.028, [(3aS,3bS,6aR,6bR)-5-(1H-benzotriazole-5-carbonyl)-octahydro-cyclobuta[1,2-c;3,4-c′]dipyrrol-2-yl]-(3-methoxy-phenyl)-methanone], 2830 nM. As for `COc1cc(C(=O)N2C[C@@H]3[C@H]4CN(C(=O)c5ccc6[nH]nnc6c5)C[C@H]4[C@@H]3C2)nc2ccccc12` [Example 1.029, [(3aR,3bS,6aR,6bS)-5-(1H-benzotriazole-5-carbonyl)-octahydro-cyclobuta[1,2-c;3,4-c′]dipyrrol-2-yl]-(4-methoxy-quinolin-2-yl)-methanone], 70 nM corresponded to half-maximal inhibition (IC50). The figure for `Cc1oc(-c2ccc(Cl)cc2)nc1C(=O)N1C[C@@H]2[C@H]3CN(C(=O)c4ccc5[nH]nnc5c4)C[C@H]3[C@@H]2C1` [Example 1.030, [(3aR,3bS,6aR,6bS)-5-(1H-benzotriazole-5-carbonyl)-octahydro-cyclobuta[1,2-c;3,4-c′]dipyrrol-2-yl]-[2-(4-chloro-phenyl)-5-methyl-oxazol-4-yl]-methanone] is 104 nM; for `O=C(c1ccc2[nH]nnc2c1)N1C[C@@H]2[C@H](C1)[C@H]1CN(C(=O)C3CCc4ccccc4C3)C[C@@H]21` (stereo partly drawn) [Example 1.031, [(3aS,3bR,6aS,6bR)-5-(1H-benzotriazole-5-carbonyl)-octahydro-cyclobuta[1,2-c;3,4-c′]dipyrrol-2-yl]-(1,2,3,4-tetrahydro-naphthalen-2-yl)-methanone] it is 224 nM; for `Cn1c(C(=O)N2C[C@@H]3[C@H]4CN(C(=O)c5ccc6[nH]nnc6c5)C[C@H]4[C@@H]3C2)cc2cc(OC(F)(F)F)ccc21` [Example 1.032, [(3aR,3bS,6aR,6bS)-5-(1H-benzotriazole-5-carbonyl)-octahydro-cyclobuta[1,2-c;3,4-c′]dipyrrol-2-yl]-(1-methyl-5-trifluoromethoxy-1H-indol-2-yl)-methanone] it is 13 nM. Compound `O=C(c1ccc2[nH]nnc2c1)N1C[C@@H]2[C@H](C1)[C@H]1CN(C(=O)c3cc4ccc(Cl)cc4[nH]3)C[C@@H]21` [Example 1.033, [(3aR,3bS,6aR,6bS)-5-(1H-benzotriazole-5-carbonyl)-octahydro-cyclobuta[1,2-c;3,4-c′]dipyrrol-2-yl]-(6-chloro-1H-indol-2-yl)-methanone] registered an IC50 of 104 nM.

For the compound `Cn1c(C(=O)N2C[C@@H]3[C@H]4CN(C(=O)c5ccc6[nH]nnc6c5)C[C@H]4[C@@H]3C2)cc2ccc(Cl)cc21` [Example 1.034, [(3aR,3bS,6aR,6bS)-5-(1H-benzotriazole-5-carbonyl)-octahydro-cyclobuta[1,2-c;3,4-c′]dipyrrol-2-yl]-(6-chloro-1-methyl-1H-indol-2-yl)-methanone], the midpoint of inhibition, the IC50, lay at 489 nM. The figure for `Cc1ccc2cc(C(=O)N3C[C@@H]4[C@H]5CN(C(=O)c6ccc7[nH]nnc7c6)C[C@H]5[C@@H]4C3)[nH]c2c1` [Example 1.035, [(3aR,3bS,6aR,6bS)-5-(1H-benzotriazole-5-carbonyl)-octahydro-cyclobuta[1,2-c;3,4-c′]dipyrrol-2-yl]-(6-methyl-1H-indol-2-yl)-methanone] is 243 nM; for `N#CCn1c(C(=O)N2C[C@@H]3[C@H]4CN(C(=O)c5ccc6[nH]nnc6c5)C[C@H]4[C@@H]3C2)cc2ccccc21` [Example 1.036, {2-[(3aR,3bS,6aR,6bS)-5-(1H-benzotriazole-5-carbonyl)-octahydro-cyclobuta[1,2-c;3,4-c′]dipyrrole-2-carbonyl]-indol-1-yl}-acetonitrile] it is 130 nM; for `CC(C)Cn1c(C(=O)N2C[C@@H]3[C@H]4CN(C(=O)c5ccc6[nH]nnc6c5)C[C@H]4[C@@H]3C2)cc2ccccc21` [Example 1.037, [(3aR,3bS,6aR,6bS)-5-(1H-benzotriazole-5-carbonyl)-octahydro-cyclobuta[1,2-c;3,4-c′]dipyrrol-2-yl]-(1-isobutyl-1H-indol-2-yl)-methanone] it is 159 nM. The figure for `O=C(c1ccc2[nH]nnc2c1)N1C[C@@H]2[C@H](C1)[C@H]1CN(C(=O)c3ccc4ccccc4n3)C[C@@H]21` [Example 1.038, [(3aR,3bS,6aR,6bS)-5-(1H-benzotriazole-5-carbonyl)-octahydro-cyclobuta[1,2-c;3,4-c′]dipyrrol-2-yl]-quinolin-2-yl-methanone] is 687 nM. The figure for `O=C(c1ccc2[nH]nnc2c1)N1C[C@@H]2[C@H](C1)[C@H]1CN(C(=O)c3cc4ccccc4cn3)C[C@@H]21` [Example 1.039, [(3aR,3bS,6aR,6bS)-5-(1H-benzotriazole-5-carbonyl)-octahydro-cyclobuta[1,2-c;3,4-c′]dipyrrol-2-yl]-isoquinolin-3-yl-methanone] is 3330 nM; for `O=C(c1ccc2[nH]nnc2c1)N1C[C@@H]2[C@H](C1)[C@H]1CN(C(=O)c3ccc4cc[nH]c4c3)C[C@@H]21` [Example 1.040, [(3aS,3bS,6aR,6bR)-5-(1H-benzotriazole-5-carbonyl)-octahydro-cyclobuta[1,2-c;3,4-c′]dipyrrol-2-yl]-(1H-indol-6-yl)-methanone] it is 8670 nM; for `O=C1CC(C(=O)N2C[C@@H]3[C@H]4CN(C(=O)c5ccc6[nH]nnc6c5)C[C@H]4[C@@H]3C2)Cc2ccccc21` (stereo partly drawn) [Example 1.041, 3-[(3aS,3bR,6aS,6bR)-5-(1H-benzotriazole-5-carbonyl)-octahydro-cyclobuta[1,2-c;3,4-c′]dipyrrole-2-carbonyl]-3,4-dihydro-2H-naphthalen-1-one] it is 538 nM.
